# Source: patent US10369130B2, “Antibacterial compounds” (AZIENDE CHIMICHE RIUNITE ANGELINI FRANCESCO A.C.R.A.F. …, priority 2014, dated 2019)
# Counter-ions that a name gives are not always drawn.
# Experiments:
# Type in all cases: biochemical
# Details in all cases: single concentration (200, 100 or 50 μM), in duplicate, versus the positive control (vehicle)
# DNA gyrase [1] = target: T1, DNA gyrase (Staphylococcus aureus, UniProt P0A0K8+P20831); assay: DNA gyrase supercoiling assay (S. aureus)
# T1 construct: purchased Inspiralis, UK
# T1 sequence (P20831 whole entry): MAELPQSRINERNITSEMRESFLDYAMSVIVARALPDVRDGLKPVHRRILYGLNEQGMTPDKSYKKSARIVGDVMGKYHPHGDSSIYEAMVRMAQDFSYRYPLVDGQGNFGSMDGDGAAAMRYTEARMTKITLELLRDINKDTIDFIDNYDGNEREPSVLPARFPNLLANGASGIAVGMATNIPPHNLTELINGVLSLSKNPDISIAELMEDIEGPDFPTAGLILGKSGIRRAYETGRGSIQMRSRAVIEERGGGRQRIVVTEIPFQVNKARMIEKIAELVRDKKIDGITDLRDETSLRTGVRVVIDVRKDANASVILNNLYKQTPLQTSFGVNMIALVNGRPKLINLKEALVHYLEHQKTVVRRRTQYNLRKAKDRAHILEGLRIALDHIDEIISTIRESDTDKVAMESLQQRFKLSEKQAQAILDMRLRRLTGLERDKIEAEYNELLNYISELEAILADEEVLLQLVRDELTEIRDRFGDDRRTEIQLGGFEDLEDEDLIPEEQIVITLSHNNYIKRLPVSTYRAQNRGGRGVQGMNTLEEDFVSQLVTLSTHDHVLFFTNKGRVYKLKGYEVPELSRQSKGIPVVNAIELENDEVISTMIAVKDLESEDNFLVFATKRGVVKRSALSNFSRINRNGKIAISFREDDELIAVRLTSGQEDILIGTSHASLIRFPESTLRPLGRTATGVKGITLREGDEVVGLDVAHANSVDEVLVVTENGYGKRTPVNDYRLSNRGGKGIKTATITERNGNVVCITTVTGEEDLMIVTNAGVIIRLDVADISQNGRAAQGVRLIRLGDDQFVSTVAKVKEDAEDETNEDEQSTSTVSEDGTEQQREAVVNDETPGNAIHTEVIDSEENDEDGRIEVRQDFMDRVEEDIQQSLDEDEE
# T1 sequence (P0A0K8 whole entry): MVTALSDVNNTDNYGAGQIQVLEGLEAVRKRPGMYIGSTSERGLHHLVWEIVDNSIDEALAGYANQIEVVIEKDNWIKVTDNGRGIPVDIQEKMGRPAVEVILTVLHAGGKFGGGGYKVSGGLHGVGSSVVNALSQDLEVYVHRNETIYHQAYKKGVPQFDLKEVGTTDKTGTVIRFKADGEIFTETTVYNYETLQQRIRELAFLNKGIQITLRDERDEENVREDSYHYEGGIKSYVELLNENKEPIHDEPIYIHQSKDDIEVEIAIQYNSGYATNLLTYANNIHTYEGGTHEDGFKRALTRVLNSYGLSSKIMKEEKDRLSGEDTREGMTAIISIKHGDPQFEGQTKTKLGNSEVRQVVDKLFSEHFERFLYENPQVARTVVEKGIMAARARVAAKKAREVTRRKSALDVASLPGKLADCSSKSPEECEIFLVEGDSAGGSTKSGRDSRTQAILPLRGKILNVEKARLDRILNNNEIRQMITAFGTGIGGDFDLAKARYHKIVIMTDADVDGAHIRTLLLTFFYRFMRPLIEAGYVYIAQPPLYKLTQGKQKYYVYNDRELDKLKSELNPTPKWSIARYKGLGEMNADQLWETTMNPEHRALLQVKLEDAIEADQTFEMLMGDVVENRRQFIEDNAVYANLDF
# Method: (§1) The above compounds were tested for the inhibition of the enzyme DNA gyrase in a gyrase supercoiling assay and for the inhibition of the enzyme topoisomerase IV in a decatenation assay, in both Gram positive and Gram negative bacteria, according to the following methods.
# (§2) Both the assays were carried out according to a set-up method modified from the article to Blanche F, et al. “Differential Behaviors of Staphylococcus aureus and Escherichia coli Type II DNA Topoisomerases”, Antimicrob.
# (§3) The compounds were screened at single concentration (200, 100 or 50 μM), in duplicate.
# (§4) Ciprofloxacin and novobiocin were used as reference compounds, at single concentration of 200 and 50 μM, respectively.
# (§5) DNA Gyrase Supercoiling Assay.
# (§6) Reagents from S. aureus and E. coli Gyrase Supercoiling Assay kits (Inspiralis, UK) were used. A master mix with a total volume sufficient for the number of reactions to perform was prepared with the following reagents: 5× assay buffer, relaxed pBR322 substrate (0.5 μg/reaction), RNase-DNase free water. Aliquotes of this mix were dispensed in each tube, then 10× compound stock solutions or vehicle control (DMSO), were added to each reaction tube.
# (§7) Reaction was started with E. Coli (2 U/reaction) or S. aureus (1 U/reaction) gyrase enzyme addition.
# (§8) A sample added with an equal volume of dilution buffer was used as negative control (without enzyme).
# (§9) The reaction tubes were gentle vortexed and incubated 30 minutes at 37° C. Each reaction was stopped by adding 30 μl of Stop Buffer and 30 μl chloroform/isoamyl alcohol (24/1), briefly vortexed for 5-10 seconds and centrifuged at 20000×g for 2 minutes. Samples were loaded onto 1% agarose gel and subjected to electrophoresis for 1 hour at 80V constant voltage in TAE (40 mM Tris-acetate, 2 mM EDTA).
# (§10) Data acquisition and analysis. Treatment of relaxed pBR322 with DNA gyrase converted the relaxed topoisomers (DNAs of different linking number) to the supercoiled form of the plasmid, which migrates faster on an agarose gel. An upper band might also be visible, which consists of open-circular (nicked) DNA which is present in the relaxed substrate but co-migrates with some of the relaxed topoisomers.
# (§11) Bands were visualized by ethidium bromide staining (dil 1:20000) for 30 minutes followed by destaining in distilled water for 10 minutes.
# (§12) In order to evaluate the compounds activity on the enzyme, the bands of supercoiled DNAs in the gel were photographed by a digital imaging system ImageQuant LAS 4000 (GE Healthcare) according to manufacturer's instructions.
# (§13) The fluorescent intensity of each band was analysed by ImageQuant TL software and it was expressed as volume (volume of the uncalibrated quantity of material in the image feature after subtraction of the background intensity by using rolling ball method).
# (§14) Each band intensity was compared, as percentage, to vehicle sample band intensity, which served as positive control, on the same gel.
# (§15) Inhibitory activity was expressed as percent of inhibition versus the positive control.
# DNA gyrase [2] = target: T2, DNA gyrase (Escherichia coli, UniProt P0AES4+P0AES6); assay: DNA gyrase supercoiling assay (E. coli)
# T2 construct: purchased Inspiralis, UK
# Method: as §1, §2, §3, §4, §5, §6, §7, §8, §9, §10, §11, §12, §13, §14, §15
# Topoisomerase IV [3] = target: T3, Topoisomerase IV (Escherichia coli, UniProt P0AFI2+P20083); assay: Topoisomerase IV decatenation assay (E. coli)
# T3 construct: purchased Inspiralis, UK
# T3 sequence (P20083 whole entry): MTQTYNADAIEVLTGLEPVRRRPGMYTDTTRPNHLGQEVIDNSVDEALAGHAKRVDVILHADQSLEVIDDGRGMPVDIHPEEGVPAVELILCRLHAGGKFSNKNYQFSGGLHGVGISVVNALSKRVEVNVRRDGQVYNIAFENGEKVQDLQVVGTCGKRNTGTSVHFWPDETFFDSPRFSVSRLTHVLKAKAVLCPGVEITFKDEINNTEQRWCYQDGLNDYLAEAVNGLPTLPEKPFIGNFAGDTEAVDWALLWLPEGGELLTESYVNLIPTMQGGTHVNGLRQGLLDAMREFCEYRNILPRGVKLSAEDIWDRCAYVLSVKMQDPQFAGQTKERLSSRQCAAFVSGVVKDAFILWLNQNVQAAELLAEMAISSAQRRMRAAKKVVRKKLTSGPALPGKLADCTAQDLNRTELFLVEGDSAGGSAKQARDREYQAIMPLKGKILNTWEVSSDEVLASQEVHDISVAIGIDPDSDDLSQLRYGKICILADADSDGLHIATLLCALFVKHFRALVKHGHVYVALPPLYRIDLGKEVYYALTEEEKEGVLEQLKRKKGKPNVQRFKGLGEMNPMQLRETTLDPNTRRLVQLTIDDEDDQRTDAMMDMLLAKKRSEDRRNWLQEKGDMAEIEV
# T3 sequence (P0AFI2 whole entry): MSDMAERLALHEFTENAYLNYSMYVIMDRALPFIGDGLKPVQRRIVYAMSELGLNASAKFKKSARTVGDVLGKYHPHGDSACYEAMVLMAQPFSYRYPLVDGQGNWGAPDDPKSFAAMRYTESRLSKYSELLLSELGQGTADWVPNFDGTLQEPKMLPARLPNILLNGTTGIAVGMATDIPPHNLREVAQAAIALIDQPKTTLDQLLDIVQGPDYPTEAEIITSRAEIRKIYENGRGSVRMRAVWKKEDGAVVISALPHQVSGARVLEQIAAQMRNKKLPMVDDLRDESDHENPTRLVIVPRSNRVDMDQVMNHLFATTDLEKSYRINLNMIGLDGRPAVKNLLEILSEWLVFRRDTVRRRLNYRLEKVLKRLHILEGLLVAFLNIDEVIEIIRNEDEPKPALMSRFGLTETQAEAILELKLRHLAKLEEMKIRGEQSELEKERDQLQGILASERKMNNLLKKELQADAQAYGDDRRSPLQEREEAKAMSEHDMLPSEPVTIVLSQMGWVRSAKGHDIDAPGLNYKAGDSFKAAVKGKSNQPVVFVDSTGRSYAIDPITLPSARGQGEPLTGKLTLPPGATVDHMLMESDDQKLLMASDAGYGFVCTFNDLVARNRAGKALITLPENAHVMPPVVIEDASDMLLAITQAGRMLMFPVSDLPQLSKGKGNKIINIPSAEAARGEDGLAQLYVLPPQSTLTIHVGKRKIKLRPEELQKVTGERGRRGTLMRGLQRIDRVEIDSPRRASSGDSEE
# Method: as §1, §2, §3, §4
# (§16) Topoisomerase IV Decatenation Assay
# (§17) S. aureus and E. coli Topoisomerase IV decatenation kits (Inspiralis, UK) were used. A master mix with a total volume sufficient for the number of reactions to perform was prepared with the following reagents: 5× assay buffer (50 mM HEPES-KOH (pH 7.6), 100 mM potassium glutamate, 10 mM magnesium acetate, 10 mM DTT, 1 mM ATP, 50 μg/ml albumin), kDNA substrate (200 ng/reaction), RNase-DNase free water. Aliquots of this mix were dispensed in each tube, then 10× compound stock solutions or vehicle control (DMSO), were added in each reaction tube.
# (§18) Reaction was started with Topoisomerase IV enzyme (0.5 U/reaction) addition.
# as §8
# (§19) The reaction tubes were gentle vortexed and incubated 30 minutes at 37° C. Each reaction was stopped by adding 30 μl of Stop Buffer and 30 μl of chloroform/isoamyl alcohol (24/1), briefly vortexed for 5-10 seconds and centrifuged at 20000×g for 2 minutes. Samples taken from the upper phase were loaded into 1% agarose gel and subjected to electrophoresis for 1 hour at 80V constant voltage in TAE (40 mM Tris-acetate, 2 mM EDTA).
# (§20) Data acquisition and analysis. Due to the high molecular mass, kDNA could not enter an agarose gel under normal electrophoresis conditions, but remained in the wells. In the presence of Topo IV topoisomerase mini-circles (2.5 Kb) were released from kDNA by decatenation and were quickly and easily resolved in the gel at relatively high voltages.
# as §11
# (§21) For single concentration screening assay, in order to evaluate the compounds activity on the enzymes, the bands of decatenated DNAs in the gel were photographed by a digital imaging system ImageQuant LAS 4000 (GE Healthcare) according to manufacturer's instructions.
# (§22) The fluorescent intensity of each band was analyzed by ImageQuant TL software and it was expressed as volume (volume of the uncalibrated quantity of material in the image feature after subtraction of the background intensity by using rolling ball method).
# as §14, §15
# Topoisomerase IV [4] = target: T4, Topoisomerase IV (Staphylococcus aureus, UniProt P0C1S7+P0C1U9); assay: Topoisomerase IV decatenation assay (S. aureus)
# T4 construct: purchased Inspiralis, UK
# T4 sequence (P0C1S7 whole entry): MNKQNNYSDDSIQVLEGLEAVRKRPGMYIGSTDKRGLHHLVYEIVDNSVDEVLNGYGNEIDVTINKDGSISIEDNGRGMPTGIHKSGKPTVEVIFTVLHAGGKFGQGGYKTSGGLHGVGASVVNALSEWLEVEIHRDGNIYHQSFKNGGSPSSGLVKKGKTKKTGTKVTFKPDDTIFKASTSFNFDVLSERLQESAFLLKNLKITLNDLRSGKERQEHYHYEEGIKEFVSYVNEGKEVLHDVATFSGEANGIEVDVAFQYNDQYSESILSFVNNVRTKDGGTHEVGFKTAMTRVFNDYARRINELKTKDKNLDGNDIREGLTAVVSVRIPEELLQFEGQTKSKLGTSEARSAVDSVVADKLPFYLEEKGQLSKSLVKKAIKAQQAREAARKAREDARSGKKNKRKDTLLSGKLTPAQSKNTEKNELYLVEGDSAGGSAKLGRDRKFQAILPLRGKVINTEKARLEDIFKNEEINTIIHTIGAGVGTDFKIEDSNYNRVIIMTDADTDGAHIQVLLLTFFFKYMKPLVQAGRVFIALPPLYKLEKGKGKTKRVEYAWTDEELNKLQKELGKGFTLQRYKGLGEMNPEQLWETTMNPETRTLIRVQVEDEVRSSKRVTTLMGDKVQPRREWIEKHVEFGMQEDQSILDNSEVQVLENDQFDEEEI
# T4 sequence (P0C1U9 whole entry): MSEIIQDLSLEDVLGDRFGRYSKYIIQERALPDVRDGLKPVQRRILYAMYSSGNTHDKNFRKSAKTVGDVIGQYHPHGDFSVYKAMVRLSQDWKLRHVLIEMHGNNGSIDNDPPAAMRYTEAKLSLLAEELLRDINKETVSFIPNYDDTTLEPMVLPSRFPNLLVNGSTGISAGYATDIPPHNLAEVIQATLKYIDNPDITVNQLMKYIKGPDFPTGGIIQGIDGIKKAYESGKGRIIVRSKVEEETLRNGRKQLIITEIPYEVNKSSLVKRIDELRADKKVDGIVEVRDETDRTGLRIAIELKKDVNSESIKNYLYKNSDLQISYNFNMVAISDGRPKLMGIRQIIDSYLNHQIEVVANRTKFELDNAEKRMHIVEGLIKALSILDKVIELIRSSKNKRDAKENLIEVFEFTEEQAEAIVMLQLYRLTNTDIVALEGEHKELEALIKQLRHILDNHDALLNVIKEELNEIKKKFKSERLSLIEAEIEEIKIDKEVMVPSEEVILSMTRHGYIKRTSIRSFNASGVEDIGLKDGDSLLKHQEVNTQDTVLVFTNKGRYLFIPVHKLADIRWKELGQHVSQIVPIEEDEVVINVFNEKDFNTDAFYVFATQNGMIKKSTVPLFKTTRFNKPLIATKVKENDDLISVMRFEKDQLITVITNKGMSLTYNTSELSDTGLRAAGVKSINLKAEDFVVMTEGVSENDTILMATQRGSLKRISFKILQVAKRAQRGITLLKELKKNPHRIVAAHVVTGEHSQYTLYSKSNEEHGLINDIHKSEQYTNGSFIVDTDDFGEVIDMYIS
# Method: as §1, §2, §3, §4, §16, §17, §18, §8, §19, §20, §11, §21, §22, §14, §15
Compound,% inhibition DNA gyrase (DNA gyrase [1]),% inhibition DNA gyrase (DNA gyrase [2]),% inhibition Topo IV (Topoisomerase IV [3]),% inhibition Topo IV (Topoisomerase IV [4])
"O=c1cc(NC[C@H](O)[C@@H](O)C2CCN(c3nccc4ccc(F)cc34)CC2)c2ccccc2o1 (racemic) [Compound 128, (2S,3S) and (2R,3R) 4-({3-[1-(7-fluoroisoquinolin-1-yl)piperidin-4-yl]-2,3-dihydroxypropyl}amino)-2H-chromen-2-one hydrochloride]",66%,n/a (n/a = not active),n/a (n/a = not active),n/a (n/a = not active)
"O=c1cc(NC[C@@H](O)[C@@H](O)C2CCN(c3nccc4ccc(F)cc34)CC2)c2ccccc2o1 (racemic) [Compound 129, (2R,3S) and (2S,3R) 4-({3-[1-(7-fluoroisoquinolin-1-yl)piperidin-4-yl]-2,3-dihydroxypropyl}amino)-2H-chromen-2-one hydrochloride]",n/a (n/a = not active),69%,n/a (n/a = not active),n/a (n/a = not active)
"O=C(NCCCN1CCN(c2nccc3ccccc23)CC1)c1cccnc1 [Compound 2, N-{3-[4-(isoquinolin-1-yl)piperazin-1-yl]propyl}pyridine-3-carboxamide hydrochloride]",n/a (n/a = not active),n/a (n/a = not active),65%,n/a (n/a = not active)
"O=C(NCCCN1CCN(c2nccc3ccccc23)CC1)c1ccccc1 [Compound 3, N-{3-[4-(isoquinolin-1-yl)piperazin-1-yl]propyl}benzamide hydrochloride]",n/a (n/a = not active),59%,n/a (n/a = not active),n/a (n/a = not active)
"O=c1cc(NCCCN2CCN(c3nccc4ccccc34)CC2)c2ccccc2[nH]1 [Compound 58, 4,4-({3-[4-(isoquinolin-1-yl)piperazin-1-yl]propyl}amino)quinolin-2(1H)-one hydrochloride]",n/a (n/a = not active),100%,n/a (n/a = not active),
"O=C(CN1CCC(Nc2cc(=O)oc3ccccc23)CC1)Nc1nccc2ccccc12 [Compound 117, N-(isoquinolin-1-yl)-2-{4-[(2-oxo-2H-chromen-4-yl)amino]piperidin-1-yl}acetamide]",n/a (n/a = not active),75%,n/a (n/a = not active),
"c1ccc2sc(CNCCCN3CCN(c4nccc5ccccc45)CC3)cc2c1 [Compound 119, N-(1-benzothiophen-2-ylmethyl)-3-[4-(isoquinolin-1-yl)piperazin-1-yl]propan-1-amine]",60%,n/a (n/a = not active),n/a (n/a = not active),
"c1ccc2c(N3CCN(CCCNCc4ccc5c(c4)OCO5)CC3)nccc2c1 [Compound 120, N-(1,3-benzodioxol-5-ylmethyl)-3-[4-(isoquinolin-1-yl)piperazin-1-yl]propan-1-amine]",76%,n/a (n/a = not active),n/a (n/a = not active),
"c1ccc2c(N3CCN(CCNCc4ccc5c(c4)OCO5)CC3)nccc2c1 [Compound 130, N-(1,3-benzodioxol-5-ylmethyl)-2-[4-(isoquinolin-1-yl)piperazin-1-yl]ethanamine]",74%,n/a (n/a = not active),n/a (n/a = not active),
"O=C(O)CC(NC[C@@H](O)CN1CCN(c2nccc3ccc(F)cc23)CC1)C1CCCCC1 (stereo partly drawn) [Compound 136, 3-cyclohexyl-3-({(2R)-3-[4-(7-fluoroisoquinolin-1-yl)piperazin-1-yl]-2-hydroxypropyl}amino)propanoic acid]",75%,57%,n/a (n/a = not active),
"O=C(O)CC(NC[C@H](O)CN1CCN(c2nccc3ccc(F)cc23)CC1)C1CCCCC1 (stereo partly drawn) [Compound 137, 3-cyclohexyl-3-({(2S)-3-[4-(7-fluoroisoquinolin-1-yl)piperazin-1-yl]-2-hydroxypropyl}amino)propanoic acid]",75%,57%,n/a (n/a = not active),
"O=C(O)[C@@H](NC[C@H](O)CN1CCN(c2nccc3ccc(F)cc23)CC1)C1CCCCC1 [Compound 138, (2S)-cyclohexyl({(2S)-3-[4-(7-fluoroisoquinolin-1-yl)piperazin-1-yl]-2-hydroxypropyl}amino)acetic acid]",89%,n/a (n/a = not active),n/a (n/a = not active),
"O=C(O)[C@H](NC[C@@H](O)CN1CCN(c2nccc3ccc(F)cc23)CC1)C1CCCCC1 [Compound 139, (2R)-cyclohexyl({(2R)-3-[4-(7-fluoroisoquinolin-1-yl)piperazin-1-yl]-2-hydroxypropyl}amino)acetic acid]",54%,n/a (n/a = not active),n/a (n/a = not active),
"O=C(O)[C@@H](NC[C@@H](O)CN1CCN(c2nccc3ccc(F)cc23)CC1)C1CCCCC1 [Compound 140, (2S)-cyclohexyl({(2R)-3-[4-(7-fluoroisoquinolin-1-yl)piperazin-1-yl]-2-hydroxypropyl}amino)acetic acid]",92%,68%,n/a (n/a = not active),
"OCCC(NCCNC1CCN(c2nccc3ccc(F)cc23)CC1)C1CCCCC1 (stereo not shown) [Compound 167, 3-cyclohexyl-3-[(2-{[1-(7-fluoroisoquinolin-1-yl)piperidin-4-yl]amino}ethyl)amino]propan-1-ol]",70%,n/a (n/a = not active),n/a (n/a = not active),
"COC(=O)CC(NCCNC1CCN(c2nccc3ccc(F)cc23)CC1)C1CCCCC1 (stereo not shown) [Compound 189, methyl 3-cyclohexyl-3-[(2-{[1-(7-fluoroisoquinolin-1-yl)piperidin-4-yl]amino}ethyl)amino]propanoate]",84%,n/a (n/a = not active),n/a (n/a = not active),
"O=C(CC(NCCNC1CCN(c2nccc3ccc(F)cc23)CC1)C1CCCCC1)NO (stereo not shown) [Compound 191, 3-cyclohexyl-3-[(2-{[1-(7-fluoroisoquinolin-1-yl)piperidin-4-yl]amino}ethyl)amino]-N-hydroxypropanamide]",81%,n/a (n/a = not active),n/a (n/a = not active),
